Results from ChEMBL document CHEMBL4376837, “New Dual Small Molecules for Alzheimer's Disease Therapy Combining Histamine H3 Receptor (H3R) Antagonism and Calcium Channels Blockade with Additional Cholinesterase Inhibition” (J Med Chem, 2019).
The source made the active and inactive calls. The calls are words filed in the database; no cut-off is given here.

Experiments:
[1] = molecular target: Voltage-gated L-type calcium channel (Homo sapiens, UniProt Q13936+Q13698+Q01668+O60840); assay: Inhibition of voltage-dependent L-type calcium channel in 70 mM K+-induced human SH-SY5Y cells assessed as blocking of depolarization-induced Ca2+ uptake by Fluo-4/AM dye based fluorescence microplate reader assay; type: cell-based
[2] = Inhibition of human recombinant AChE using acetylthiocholine iodide substrate by Ellman's protocol based assay
Histamine H3 receptor = Histamine H3 receptor (Homo sapiens, UniProt Q9Y5N1); assay: Displacement of [3H]-N-alpha-methylhistamine from human H3 receptor expressed in HEK293 cell membranes incubated for 60 mins by scintillation counting method; parameters: concentration or dose not given beside the values
Sequence of Histamine H3 receptor (Q9Y5N1 whole entry): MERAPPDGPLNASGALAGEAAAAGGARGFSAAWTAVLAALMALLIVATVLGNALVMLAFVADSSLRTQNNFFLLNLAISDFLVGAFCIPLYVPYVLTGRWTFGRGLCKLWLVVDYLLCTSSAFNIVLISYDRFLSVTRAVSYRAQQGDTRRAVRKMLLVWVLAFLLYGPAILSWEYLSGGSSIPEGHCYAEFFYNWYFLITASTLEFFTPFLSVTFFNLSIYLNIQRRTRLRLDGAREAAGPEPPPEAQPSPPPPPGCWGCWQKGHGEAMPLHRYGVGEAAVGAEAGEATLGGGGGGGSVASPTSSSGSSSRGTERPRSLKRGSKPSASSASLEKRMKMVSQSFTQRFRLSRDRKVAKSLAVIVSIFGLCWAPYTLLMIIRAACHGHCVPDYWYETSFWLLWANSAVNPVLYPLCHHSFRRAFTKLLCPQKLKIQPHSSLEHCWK

[3] = Antioxidant activity assessed as Trolox equivalents incubated for 15 mins by fluorescein based ORAC-FL assay; type: functional
Mus musculus [4] = assay: Neuroprotective activity in mouse model of LPS-induced induced memory impairment assessed as improvement in discrimination index at 1 mg/kg, ip by novel object recognition test; type: functional, organism-based
SH-SY5Y [5] = assay: Neuroprotective activity against Rotenone/Oligomycin A-induced cytotoxicity in human SH-SY5Y cells assessed as protection against cell death at 0.1 uM incubated for 24 hrs by MTT assay relative to control; type: functional
SH-SY5Y [6] = assay: Neuroprotective activity against okadaic acid-induced cytotoxicity in human SH-SY5Y cells assessed as protection against cell death at 0.1 uM incubated for 24 hrs by MTT assay relative to control; type: functional
Aorta [7] = assay: Vasodilating activity in Wistar rat endothelium-denuded aortic rings preconstricted with 100 mM KCl assessed as vasorelaxation at 0.1 nM relative to control; parameters: scale not given: the % may be the effect or the level left; conditions: 0.0001 µM
Aorta [8] = assay: Vasodilating activity in Wistar rat endothelium-denuded aortic rings preconstricted with 100 mM KCl assessed as vasorelaxation at 1 nM relative to control; parameters: scale not given: the % may be the effect or the level left; conditions: 0.001 µM
Aorta [9] = assay: Vasodilating activity in Wistar rat endothelium-denuded aortic rings preconstricted with 100 mM KCl assessed as vasorelaxation at 10 nM relative to control; parameters: scale not given: the % may be the effect or the level left; conditions: 0.01 µM
SH-SY5Y [10] = assay: Neuroprotective activity against Rotenone/Oligomycin A-induced cytotoxicity in human SH-SY5Y cells assessed as protection against cell death at 0.3 uM incubated for 24 hrs by MTT assay relative to control; type: functional
SH-SY5Y [11] = assay: Neuroprotective activity against okadaic acid-induced cytotoxicity in human SH-SY5Y cells assessed as protection against cell death at 1 uM incubated for 24 hrs by MTT assay relative to control; type: functional
SH-SY5Y [12] = assay: Neuroprotective activity against Rotenone/Oligomycin A-induced cytotoxicity in human SH-SY5Y cells assessed as protection against cell death at 1 uM incubated for 24 hrs by MTT assay relative to control; type: functional
Histamine H4 receptor = Histamine H4 receptor (Homo sapiens, UniProt Q9H3N8); assay: Antagonist activity at human H4 receptor expressed in CHO-K1 cells co-expressing G protein alpha16 assessed as inhibition of histamine-induced calcium mobilization incubated for 16 hrs by aequorin-based functional assay; type: cell-based
Sequence of Histamine H4 receptor (Q9H3N8 whole entry): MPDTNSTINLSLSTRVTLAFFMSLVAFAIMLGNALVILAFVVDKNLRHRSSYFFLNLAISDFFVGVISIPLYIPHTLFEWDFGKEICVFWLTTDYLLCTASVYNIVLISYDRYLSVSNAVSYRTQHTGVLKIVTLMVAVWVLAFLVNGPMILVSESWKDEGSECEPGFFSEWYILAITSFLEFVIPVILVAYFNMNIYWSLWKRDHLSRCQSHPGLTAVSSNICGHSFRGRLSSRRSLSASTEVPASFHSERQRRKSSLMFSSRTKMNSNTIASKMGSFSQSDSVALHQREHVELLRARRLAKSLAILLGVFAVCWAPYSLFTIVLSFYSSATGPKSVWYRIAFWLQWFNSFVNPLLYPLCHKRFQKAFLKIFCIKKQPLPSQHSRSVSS

Mus musculus [13] = assay: Neuroprotective activity in mouse model of LPS-induced induced memory impairment assessed as improvement in discrimination index at 10 mg/kg, ip by novel object recognition test; type: functional, organism-based
SH-SY5Y [14] = assay: Neuroprotective activity against okadaic acid-induced cytotoxicity in human SH-SY5Y cells assessed as protection against cell death at 0.3 uM incubated for 24 hrs by MTT assay relative to control; type: functional
SH-SY5Y [15] = assay: Neuroprotective activity against okadaic acid-induced cytotoxicity in human SH-SY5Y cells assessed as protection against cell death at 3 uM incubated for 24 hrs by MTT assay relative to control; type: functional
SH-SY5Y [16] = assay: Neuroprotective activity against Rotenone/Oligomycin A-induced cytotoxicity in human SH-SY5Y cells assessed as protection against cell death at 3 uM incubated for 24 hrs by MTT assay relative to control; type: functional
[17] = molecular target: Histamine H1 receptor (Homo sapiens) (UniProt P35367); assay: Displacement of [3H]-Pyrilamine from human H1 receptor expressed in CHO-K1 cell membranes incubated for 60 mins by scintillation counting method
Sequence of Histamine H1 receptor (Homo sapiens) (P35367 whole entry): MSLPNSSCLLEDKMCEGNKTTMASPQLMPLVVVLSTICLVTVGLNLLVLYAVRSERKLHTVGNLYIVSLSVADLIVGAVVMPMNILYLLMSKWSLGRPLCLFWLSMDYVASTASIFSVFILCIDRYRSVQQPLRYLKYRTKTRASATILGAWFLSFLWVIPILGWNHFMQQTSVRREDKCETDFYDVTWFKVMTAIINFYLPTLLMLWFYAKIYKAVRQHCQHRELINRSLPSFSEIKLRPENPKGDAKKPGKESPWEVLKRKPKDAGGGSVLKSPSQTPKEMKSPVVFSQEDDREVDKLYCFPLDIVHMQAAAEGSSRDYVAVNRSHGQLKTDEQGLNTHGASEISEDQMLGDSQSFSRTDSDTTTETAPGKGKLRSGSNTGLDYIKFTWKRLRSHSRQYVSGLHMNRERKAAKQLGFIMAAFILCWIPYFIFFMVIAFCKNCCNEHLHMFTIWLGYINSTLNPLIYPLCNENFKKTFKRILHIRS

Cholinesterase = Cholinesterase (Homo sapiens, UniProt P06276); assay: Inhibition of BuChE in human plasma using butyrylthiocholine iodide substrate by Ellman's protocol based assay; type: cell-free
Sequence of Cholinesterase (P06276 whole entry): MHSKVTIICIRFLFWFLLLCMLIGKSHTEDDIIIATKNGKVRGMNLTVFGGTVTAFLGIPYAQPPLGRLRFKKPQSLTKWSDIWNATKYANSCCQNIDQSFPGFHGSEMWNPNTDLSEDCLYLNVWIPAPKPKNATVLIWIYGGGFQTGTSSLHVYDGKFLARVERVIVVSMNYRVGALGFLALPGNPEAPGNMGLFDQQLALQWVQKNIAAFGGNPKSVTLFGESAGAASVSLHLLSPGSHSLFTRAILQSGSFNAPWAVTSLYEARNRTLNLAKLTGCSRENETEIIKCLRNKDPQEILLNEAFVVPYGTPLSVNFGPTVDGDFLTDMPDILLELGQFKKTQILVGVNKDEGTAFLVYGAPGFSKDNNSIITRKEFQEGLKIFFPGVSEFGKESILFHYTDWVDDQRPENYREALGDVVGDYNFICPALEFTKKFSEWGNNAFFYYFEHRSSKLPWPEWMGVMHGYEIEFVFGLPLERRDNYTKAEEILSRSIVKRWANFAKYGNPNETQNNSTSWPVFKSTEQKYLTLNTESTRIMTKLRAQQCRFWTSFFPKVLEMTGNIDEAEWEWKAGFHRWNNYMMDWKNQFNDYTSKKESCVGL

[18] = Permeability at 100 uM by PAMPA method

| Compound | inhibition [2] | inhibition (Histamine H3 receptor) [%] | Activity [3] [equiv] | Ki (Histamine H3 receptor) [nM] | further results |
| --- | --- | --- | --- | --- | --- |
| CCOC(=O)C1=C(C)NC(C)=C(C(=O)OCC)C1c1ccc(OCCN2CCCCC2)c(Br)c1 | inactive | 37 | 2.2 | – | IC50 [1]: 2800 nM |
| CCOC(=O)C1=C(C)NC(C)=C(C(=O)OCC)C1c1ccc(OCCN2CCCCC2)cc1 | inactive | 18 | 2.4 | – | – |
| CCOC(=O)C1=C(C)NC(C)=C(C(=O)OCC)C1c1ccc(OCCN2CCCCC2)c(Cl)c1 | inactive | 17 | 2.5 | – | IC50 [1]: 2900 nM |
| COc1cc2c(cc1OC)C(=O)C(CC1CCN(Cc3ccccc3)CC1)C2 (stereo not given) | – | – | – | – | Activity (Mus musculus [4]): Active |
| CCOC(=O)C1=C(C)NC(C)=C(C(=O)OCC)C1c1ccc(OCCCCN2CCCCC2)cc1 | inactive | 49 | 2.2 | – | – |
| COc1ccc2[nH]cc(CCNC(C)=O)c2c1 [MELATONIN] | – | – | – | – | Activity (SH-SY5Y [5]): 58.2%; Activity (SH-SY5Y [6]): 76% |
| COC(=O)C1=C(C)NC(C)=C(C(=O)OC)C1c1ccccc1[N+](=O)[O-] [NIFEDIPINE] | – | – | – | – | Activity (Aorta [7]; Aorta): 12%; Activity (Aorta [8]; Aorta): 37%; Activity (Aorta [9]; Aorta): 81% |
| COc1cc(/C=C/C(=O)O)ccc1O | – | – | 3.7 | – | – |
| CCOC(=O)C1=C(C)NC(C)=C(C(=O)OCC)C1c1ccc(OCCCN2CCCCC2)c(OC)c1 | inactive | 20 | 2.3 | – | – |
| CCOC(=O)C1=C(C)NC(C)=C(C(=O)OCC)C1c1ccc(OCCCCCN2CCCCC2)cc1 | inactive | – | 3.6 | 565 | Activity (SH-SY5Y [10]): 35.1%; Activity (SH-SY5Y [5]): 17%; Activity (Aorta [7]): Non-Toxic; Activity (Aorta [8]): Non-Toxic; Activity (SH-SY5Y [11]): 41.8%; Activity (SH-SY5Y [12]): 64.8%; Activity (Aorta [9]): 5%; IC50 (Histamine H4 receptor): 1400 nM; Activity (Mus musculus [13]): Active; Activity (SH-SY5Y [6]): inactive; Activity (SH-SY5Y [14]): inactive; Activity (SH-SY5Y [15]): 20.9%; Activity (SH-SY5Y [16]): 49.9%; inhibition [17]: inactive; IC50 (Cholinesterase): 7830 nM; Papp at 100 µM [18]: 8.6 ×10⁻⁶ cm/s |
| CCOC(=O)C1=C(C)NC(C)=C(C(=O)OCC)C1c1ccc(OCCCN2CCCC2)cc1 | inactive | – | 3.5 | 83 | – |
| CCOC(=O)C1=C(C)NC(C)=C(C(=O)OCC)C1c1ccc(OCCCN2CCCC2)c(OCC)c1 | inactive | 19 | 2.8 | – | – |
| CCOC(=O)C1=C(C)NC(C)=C(C(=O)OCC)C1c1ccc(OCCCN2CCCCC2)cc1 | inactive | – | 2.3 | 40 | – |
| CCOC(=O)C1=C(C)NC(C)=C(C(=O)OCC)C1c1ccc(OCCN2CCCCCC2)c(Cl)c1 | inactive | 19 | 2.4 | – | IC50 [1]: 4000 nM |
| CCOC(=O)C1=C(C)NC(C)=C(C(=O)OCC)C1c1ccc(OCCCCN2CCCC2)cc1 | inactive | – | 3.3 | 60 | IC50 (Cholinesterase): 7220 nM |
| CCOC(=O)C1=C(C)NC(C)=C(C(=O)OCC)C1c1ccc(OCCCN2CCCC2)c(OC)c1 | inactive | 23 | 2.3 | – | – |
| CCOC(=O)C1=C(C)NC(C)=C(C(=O)OCC)C1c1ccc(OCCN2CCCCCC2)c(Br)c1 | inactive | 8 | 3 | – | IC50 [1]: 1500 nM |
| CCOC(=O)C1=C(C)NC(C)=C(C(=O)OCC)C1c1ccc(OCCCCCN2CCCC2)cc1 | inactive | – | 2.8 | 425 | Activity (SH-SY5Y [10]): 48.9%; Activity (SH-SY5Y [5]): 35.5%; Activity (SH-SY5Y [11]): 18.5%; Activity (SH-SY5Y [12]): 52.8%; inhibition (Histamine H4 receptor): inactive; Activity (Mus musculus [13]): inactive; Activity (SH-SY5Y [6]): 7.21%; Activity (SH-SY5Y [14]): 8.81%; Activity (SH-SY5Y [15]): 16%; Activity (SH-SY5Y [16]): 35.4%; inhibition [17]: inactive; IC50 (Cholinesterase): 6070 nM; Papp at 100 µM [18]: 10 ×10⁻⁶ cm/s |
| CCOC(=O)C1=C(C)NC(C)=C(C(=O)OCC)C1c1ccc(OCCCN2CCCCC2)c(OCC)c1 | inactive | – | 2.4 | 1620 | – |
| CCOC(=O)C1=C(C)NC(C)=C(C(=O)OCC)C1c1ccc(OCCN2CCCCC2)c(OC)c1 | inactive | < 5 | 3.9 | – | IC50 [1]: 26000 nM |
